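Compound exposure: 48 hours, 5 concentrations, 96-well plates. GI50 marks 50% less growth. TGI: total growth inhibition.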
Columns and labels:
Assay in all cases: growth of human tumour cells (NCI), 48 h
MDA-MB-435 = system: MDA-MB-435
HS 578T breast = system: HS 578T breast
UACC-62 melanoma = system: UACC-62 melanoma
T-47D breast = system: T-47D breast
MOLT-4 leukemia = system: MOLT-4 leukemia
786-0 renal = system: 786-0 renal
CAKI-1 renal = system: CAKI-1 renal
PC-3 prostate = system: PC-3 prostate
OVCAR-4 ovarian = system: OVCAR-4 ovarian
HCT-116 colon = system: HCT-116 colon

Structure (SMILES) | TGI (MDA-MB-435) [µM] | TGI (HS 578T breast) [µM] | TGI (UACC-62 melanoma) [µM] | TGI (T-47D breast) [µM] | TGI (MOLT-4 leukemia) [µM] | TGI (786-0 renal) [µM] | TGI (CAKI-1 renal) [µM] | TGI (PC-3 prostate) [µM] | TGI (OVCAR-4 ovarian) [µM] | TGI (HCT-116 colon) [µM] | GI50 (MDA-MB-435) [µM] | GI50 (HS 578T breast) [µM] | GI50 (UACC-62 melanoma) [µM] | GI50 (T-47D breast) [µM] | GI50 (MOLT-4 leukemia) [µM] | GI50 (786-0 renal) [µM] | GI50 (CAKI-1 renal) [µM] | GI50 (PC-3 prostate) [µM] | GI50 (OVCAR-4 ovarian) [µM] | GI50 (HCT-116 colon) [µM]
Cc1[nH]nc(-c2ccon2)c1N=O | 41 | 80.7 | 34.7 | 60.5 | 6.18 | 39.2 | 60.5 | 70.3 | 37.6 | 56.8 | – | – | – | – | – | – | – | – | – | –
C=CCc1cc(Nc2c3ccc(Cl)cc3nc3ccc(OC)cc23)cc(CN(CC)CC)c1O | 11.8 | 14.3 | 4.4 | 4.28 | 4.92 | 10.1 | 11.1 | 4.73 | 12.2 | 1.97 | 2.3 | 3.04 | 1.75 | 0.499 | 1.24 | 2.31 | 2.4 | 1.04 | 1.68 | 0.365
N/C(=N\OC(=O)c1ccccc1)C(Cc1ccccc1)C(=O)NOC(=O)c1ccccc1 (stereo not drawn) | 3.9 | 3.27 | 7.53 | 15.8 | 5.85 | 8 | 2.97 | 7.2 | 27.3 | 3.38 | 1.76 | 0.952 | 2.49 | 3.18 | 2.21 | 3.04 | 1.28 | 2.62 | 4.38 | 1.66
N#CCCNc1nonc1-c1nc2ccccc2n1CC(=O)c1ccc(NC(=O)[C@@H](N)CCCCN)cc1 | 0.0742 | > 100 | > 100 | > 100 | > 100 | > 100 | > 100 | > 100 | > 100 | > 100 | – | 0.908 | 0.0213 | > 73.8 | 0.0451 | 0.0557 | 0.061 | 0.046 | 0.0436 | 0.04
CCOC(=O)c1cc2c(cc1Cl)SC(=Nc1ccccc1)N(S(=O)(=O)c1ccc(Br)s1)S2(=O)=O | 28.3 | 49.4 | 28.1 | 53.9 | 17.9 | 32.6 | 32.8 | 32.1 | 59.8 | 30.8 | 13.4 | 18.7 | 14.4 | 15.6 | 4.37 | 17.5 | 17.5 | 14.5 | 23.4 | 14.8
Clc1ccc(C2ON=C(c3ccccc3)N2C23CC4CC(CC(C4)C2)C3)cc1 (stereo not drawn) | > 10 | > 10 | > 10 | > 10 | > 10 | > 10 | > 10 | > 10 | > 10 | > 10 | – | – | – | – | – | – | – | – | – | –
O=C(O)c1ccccc1NC(=S)c1ccccc1 | > 100 | > 100 | > 100 | > 100 | > 100 | > 100 | > 100 | > 100 | 29 | > 100 | – | – | – | – | – | – | – | – | – | –
CC(=O)O[C@@H]1C[C@@]2(C)[C@@H]3CC=C4[C@@H](C[C@H](O)C(=O)C4(C)C)[C@]3(C)C(=O)C[C@]2(C)[C@H]1[C@@](C)(O)C(=O)/C=C/C(C)(C)OC(C)=O | 37.9 | > 100 | 27.9 | > 67.8 | > 31.6 | > 70.4 | 0.397 | > 47 | > 32.3 | > 72.9 | – | – | – | – | – | – | – | – | – | –
CC(C)C[C@H](NC(=O)CCn1ccc2ccccc2c1=O)B(O)O | 2.81 | 48.7 | 24.9 | 29.3 | 5.94 | > 100 | 27 | > 100 | > 100 | 19.8 | 1.27 | 3.63 | 4.29 | 3.71 | 1.28 | 4.76 | 2.93 | 5.77 | 17 | 1.55
O=C(O)c1cc(CCc2cc(O)ccc2O)ccc1O | > 100 | > 100 | > 100 | > 100 | > 100 | > 100 | > 100 | > 100 | > 100 | > 100 | – | – | – | – | – | – | – | – | – | –
Nc1n[nH]c2ccc([C@@H]3Nc4cc5c(cc4[C@H]4C6CCC(C6)[C@@H]34)C(=O)NC5)cc12 (stereo partly drawn) | 0.49 | > 100 | > 100 | > 100 | > 100 | > 100 | > 100 | > 100 | > 100 | > 100 | 0.126 | 0.484 | 0.408 | – | 0.415 | 0.557 | 0.498 | 0.471 | 1.37 | 0.343
COc1cc2cc(Oc3ccc(NC(=O)c4ccc(Cl)c(Cl)c4)cc3)c(C)nc2cc1OC | > 100 | > 100 | > 100 | > 100 | > 100 | > 100 | > 100 | > 100 | > 100 | > 100 | > 100 | 7.24 | > 100 | 3.28 | 6.12 | > 100 | 5.96 | 4.77 | 5.26 | 4.26
